Among the data in patent US20240208953A1, “"Cyclopenta[c]pyrrol Negative Allosteric Modulators of NR2B"” (Novartis AG, priority 2021, published 2024) are efflux ratio and IC50 values, retold here.

Molecules are shown by their SMILES.

Data set [1] concerns the target P-glycoprotein (P-gp) (Homo sapiens (Human), UniProt P08183). As to the kind of experiment: MDCK-MDR1 permeability / efflux assay. It counts as in vitro ADME. Conditions: dog, MDCK-MDR1, pH 7.4, efflux ratio, read-out: MDCK-MDR1 ER. As for the experimental part: Example 4. Experimental Measurement of Efflux with MDCK-MDR1 Protocol
Cell Culture. MDCK-MDR1 cells were cultured at 37° C. under a 5% CO2 atmosphere, at 95% relative humidity in DMEM containing 10% FBS, penicillin-streptomycin (100 μg/mL), and 2 mM Ala-Gln. Cells were passaged every 3-4 days. For assay purposes, cells were seeded at a density of approximately 265,000 cells/cm^2 of a 96-well Transwell plate (Corning Life Sciences, Acton, MA) and cultured in the same media noted above for a period of 4 days.
Assay. The determination of the apparent permeability (Papp) was performed in both the A→B (apical to basal) and B→A (basal to apical) directions where each compound was assayed in triplicate. The zwitterion bestatin, a poorly permeably compound, was used as marker of monolayer integrity. To initiate the assay, media was aspirated, and the cells and basal chambers were washed three times with Hank's Balanced Salt Solution (HBSS) containing 10 mM HEPES (pH 7.4). Compound test solutions were prepared in triplicate in HBSS containing 10 mM HEPES (pH 7.4) and 0.02% bovine serum albumin (BSA) to a final concentration of 10 μM and centrifuged for 2 min at 4000×g, then applied to the donor compartment at time zero. Additionally, at time zero, a 37° C. solution without test articles (HBSS+10 mM HEPES (pH 7.4) plus 0.02% BSA) was added to the receiver chamber of the Transwell plate. A time zero sample of the donor solution was also sampled for further analysis. The assay was conducted for a period of 120 min at 37° C. without shaking. At the time of assay termination, samples were taken from each donor compartment, and each acceptor compartment of the Transwell plate. To each of the 0 and 120 min samples was added an internal standard solution containing glyburide in water:acetonitrile, 50:50 (v:v). Concentration curves were prepared using a Labcyte Echo in the same matrix noted above. Samples and concentration curve samples were centrifuged for 10 min at 4000×g and subsequently analyzed by mass spectroscopy.
Mass Spectroscopy. Assay samples were loaded onto a RapidFire C4 cartridge by means of a RapidFire autosampler (Agilent, Santa Clara, CA). […] Mass spectroscopy was performed using an AB Sciex AP15500 (Sciex, Frammingham, MA) equipped with a turbo ion spray source. The analyte concentration was calculated from the chromatographic peak area ratio of analyte to internal standard (glibenclamide, m/z 494→169), using Multiquant software V3.0 (Sciex, Framingham, MA).
Calculations. Papp values were determined as
Percent recovery values were determined as:
where VA is the volume of the acceptor (mL), S is the surface area of the membrane, D0 is the donor solution concentration at t=0, D120 is the donor solution concentration at t=120, A120 is the acceptor solution concentration at t=120, and t=time (seconds).
The suitability of a compound for oral dosing and/or for use as a CNS therapeutic is usually conducted by MDCK-MDR1 permeability assay to investigate its drug efflux potential mediated by P-glycoprotein (P-gp). MDCK-MDR1 permeability has been used as a predictor of blood brain barrier permeability in terms of efflux ratio (ER).

The target of data set [2] is NR2B (Rattus norvegicus (Rat), UniProt Q00960). As to the kind of experiment: NR2B rat cortical neuron calcium influx assay. The class given is cell-based. The conditions noted are these: rat cortical neurons, glutamate and glycine stimulated calcium influx. The source says: Example 1: NR2B Rat Cortical Neuron Calcium Influx Assay Protocol
Chain of NR2B (Q00960 27-1482, other chains not shown): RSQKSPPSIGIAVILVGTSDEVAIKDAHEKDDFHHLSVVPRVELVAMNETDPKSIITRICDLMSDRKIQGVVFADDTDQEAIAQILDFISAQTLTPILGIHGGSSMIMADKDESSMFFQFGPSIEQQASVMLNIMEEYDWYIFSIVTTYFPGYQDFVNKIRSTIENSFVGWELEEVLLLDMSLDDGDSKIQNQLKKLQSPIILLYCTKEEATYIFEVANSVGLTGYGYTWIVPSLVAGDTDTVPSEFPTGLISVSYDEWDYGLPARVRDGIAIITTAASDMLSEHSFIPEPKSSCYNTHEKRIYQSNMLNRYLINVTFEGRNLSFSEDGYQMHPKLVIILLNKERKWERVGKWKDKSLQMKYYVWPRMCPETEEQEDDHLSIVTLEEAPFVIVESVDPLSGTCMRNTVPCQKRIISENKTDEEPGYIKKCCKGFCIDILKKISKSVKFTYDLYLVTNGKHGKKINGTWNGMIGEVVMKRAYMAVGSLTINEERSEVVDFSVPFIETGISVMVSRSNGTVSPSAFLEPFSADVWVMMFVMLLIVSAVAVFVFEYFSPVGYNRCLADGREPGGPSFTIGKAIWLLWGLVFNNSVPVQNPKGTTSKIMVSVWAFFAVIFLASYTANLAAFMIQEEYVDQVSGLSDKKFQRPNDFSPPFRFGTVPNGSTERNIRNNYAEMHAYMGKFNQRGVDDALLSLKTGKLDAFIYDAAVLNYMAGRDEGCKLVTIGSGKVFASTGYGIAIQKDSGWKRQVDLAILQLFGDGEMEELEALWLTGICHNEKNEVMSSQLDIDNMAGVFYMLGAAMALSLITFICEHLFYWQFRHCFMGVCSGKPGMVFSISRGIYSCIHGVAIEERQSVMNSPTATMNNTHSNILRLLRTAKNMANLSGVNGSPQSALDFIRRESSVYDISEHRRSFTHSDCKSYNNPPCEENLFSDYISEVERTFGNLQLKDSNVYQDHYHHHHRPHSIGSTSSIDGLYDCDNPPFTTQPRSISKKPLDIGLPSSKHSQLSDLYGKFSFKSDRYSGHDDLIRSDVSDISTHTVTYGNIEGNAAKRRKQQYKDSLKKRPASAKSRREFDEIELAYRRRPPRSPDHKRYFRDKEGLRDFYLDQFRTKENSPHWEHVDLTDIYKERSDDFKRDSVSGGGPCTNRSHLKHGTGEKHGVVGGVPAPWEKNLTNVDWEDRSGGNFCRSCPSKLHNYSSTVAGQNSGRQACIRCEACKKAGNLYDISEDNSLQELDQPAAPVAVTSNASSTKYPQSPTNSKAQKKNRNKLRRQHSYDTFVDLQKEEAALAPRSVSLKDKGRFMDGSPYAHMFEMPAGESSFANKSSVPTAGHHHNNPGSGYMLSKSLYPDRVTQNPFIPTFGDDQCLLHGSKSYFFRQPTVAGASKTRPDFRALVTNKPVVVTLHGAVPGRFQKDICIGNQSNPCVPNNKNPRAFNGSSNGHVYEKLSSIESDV
Embryonic day 18 timed pregnant Sprague Dawley rats were euthanized according to Institutional Animal Care and Use Committee (IACUC) protocol. After cutting medially through the skin and exposing the uterus and embryos, fetuses were removed and placed in cold Hibernate medium. Each embryo's brain was extracted and cerebral cortices were isolated by removing the midbrain and meninges. The dissected cortices were then dissociated into the neurons using papain dissociation system (Worthington Biochemical Corporation) according the manufacturer's protocol.
Dissociated neurons were counted and plated into 384-well poly-D-lysine coated plates (Corning® BioCoat™) at a density of 20,000 cells/well in 30 μL of Neurobasal/B27 complete medium. Neurons were cultured at 37° C. for 2 days. On the assay day, medium was removed and cells were incubated with 20 μL/well of calcium dye (Calcium 6 Assay Kit, Molecular Devices) suspended in HBSS with 1.8 mM Ca^2+ (Ca-HBSS) according to the manufacturer's instruction.
Compounds of interest from 10 mM stock were serially diluted into 3× of desired concentrations in 1.8 mM Ca-HBSS, and 10 μL were added to the wells. Compound and the neurons were incubated at 37° C. for 2 hours in the dark.
On FDSS7000EX (Hamamatsu Photonics), a fluorescence measuring instrument, 10 μL of 4× ligand solution containing glutamate and glycine made in 1.8 mM Ca^2+-HBSS were added to each well. The fluorescent signals were collected before and after the addition of ligands for a total of 2 minutes. The data were converted to a ratio of the peak fluorescence to the fluorescence at the beginning of the measurement.
Each data point was measured in duplicates. Dose response curves were used to identify IC50 and maximal inhibition values. IC50 represents the concentration in μM of compound at which there is a half-maximal compound effect. Maximal inhibition of a compound is expressed as a percent of the highest inhibition of activity over a no compound control.

Chain of P-glycoprotein (P-gp) (P08183 whole entry): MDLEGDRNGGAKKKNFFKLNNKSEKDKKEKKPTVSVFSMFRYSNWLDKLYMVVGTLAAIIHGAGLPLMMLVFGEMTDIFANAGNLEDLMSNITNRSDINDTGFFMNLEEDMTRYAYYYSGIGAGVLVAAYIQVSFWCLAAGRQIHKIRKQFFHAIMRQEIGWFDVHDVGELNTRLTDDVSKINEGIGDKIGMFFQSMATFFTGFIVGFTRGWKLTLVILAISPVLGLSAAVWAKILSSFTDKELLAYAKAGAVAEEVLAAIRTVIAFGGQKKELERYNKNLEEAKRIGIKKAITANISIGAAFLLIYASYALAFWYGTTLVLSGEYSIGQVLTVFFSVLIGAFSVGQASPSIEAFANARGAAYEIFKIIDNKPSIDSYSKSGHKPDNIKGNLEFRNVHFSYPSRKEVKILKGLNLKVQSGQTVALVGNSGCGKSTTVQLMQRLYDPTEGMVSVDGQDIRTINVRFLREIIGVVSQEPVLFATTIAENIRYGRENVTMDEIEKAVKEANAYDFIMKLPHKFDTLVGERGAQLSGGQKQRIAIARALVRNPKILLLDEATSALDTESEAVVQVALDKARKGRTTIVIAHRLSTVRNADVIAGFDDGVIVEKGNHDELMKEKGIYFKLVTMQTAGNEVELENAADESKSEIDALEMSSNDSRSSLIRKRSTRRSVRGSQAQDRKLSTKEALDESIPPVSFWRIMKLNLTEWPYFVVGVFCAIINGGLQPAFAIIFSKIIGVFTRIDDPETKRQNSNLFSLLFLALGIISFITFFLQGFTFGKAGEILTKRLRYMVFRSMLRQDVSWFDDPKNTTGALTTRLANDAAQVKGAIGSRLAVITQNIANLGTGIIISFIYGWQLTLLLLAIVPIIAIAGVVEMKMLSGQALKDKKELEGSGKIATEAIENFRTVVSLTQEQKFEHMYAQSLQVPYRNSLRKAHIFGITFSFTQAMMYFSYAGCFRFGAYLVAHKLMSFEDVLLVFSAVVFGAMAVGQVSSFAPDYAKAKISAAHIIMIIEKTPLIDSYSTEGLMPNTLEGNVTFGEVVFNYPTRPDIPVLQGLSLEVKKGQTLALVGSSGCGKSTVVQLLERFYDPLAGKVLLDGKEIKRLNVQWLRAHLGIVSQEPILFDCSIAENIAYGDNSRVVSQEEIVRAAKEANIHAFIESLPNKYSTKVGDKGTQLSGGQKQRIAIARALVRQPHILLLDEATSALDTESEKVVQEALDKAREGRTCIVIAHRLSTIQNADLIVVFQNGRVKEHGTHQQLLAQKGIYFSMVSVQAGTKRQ

For `O=C1COc2cc([C@@H](O)CN3C[C@H]4C[C@H](Oc5ccccc5)C[C@@]4(O)C3)cc(F)c2N1` (single isomer, unassigned) [Example 13A], in data set [1], the efflux ratio at 120 min, 10 μM came out at 1.22. Besides, the concentration for half-maximal inhibition (IC50) (in general, the concentration that gives 50% inhibition) in data set [2] stood at 86 nM.
`O=C1CCc2cc([C@@H](O)CN3C[C@H]4C[C@H](Oc5ccccc5F)C[C@@]4(O)C3)cc(F)c2N1` (single isomer, unassigned) [Example 6A]: the efflux ratio at 120 min, 10 μM in data set [1] worked out at 1.01. Further, the IC50 in data set [2] came out at 520 nM.
For `CC1(C)Cc2cc([C@@H](O)CN3C[C@H]4C[C@H](Oc5ccccc5)C[C@@]4(O)C3)ccc2NC1=O` (single isomer, unassigned) [Example 11A], the efflux ratio at 120 min, 10 μM in data set [1] came out at 1.74. Moreover, the IC50 in data set [2] is 1.9 nM.
As for `O=C1CCc2cc([C@@H](O)CN3C[C@@H]4C[C@@H](Oc5c(F)cccc5F)C[C@]4(O)C3)ccc2N1` (single isomer, unassigned) [Example 27C], the efflux ratio at 120 min, 10 μM in data set [1] was found to be 1.52. Besides, the IC50 in data set [2] amounted to 1.7 nM.
On the same counts, the results for `O=C1Nc2ccc([C@@H](O)CN3C[C@H]4C[C@H](Oc5ccccc5)C[C@@]4(O)C3)cc2CS1` (single isomer, unassigned) [Example 14A] are 1.51 and 0.011 nM.
Turning to `O=C1CCc2cc([C@@H](O)CN3C[C@H]4C[C@H](Oc5ccccc5F)[C@H](O)[C@@]4(O)C3)cc(F)c2N1` (single isomer, unassigned) [Example 29A], the efflux ratio at 120 min, 10 μM in data set [1] is 3.23. Moreover, in data set [2], the IC50 came to 130 nM.
Consider `O=C1CCc2c(ccc([C@@H](O)CN3C[C@H]4C[C@H](Oc5ccccc5)C[C@@]4(O)C3)c2F)N1` (single isomer, unassigned) [Example 9A], for which the efflux ratio at 120 min, 10 μM in data set [1] came out at 1.06. Also, in data set [2], the IC50 came out at 2.7 nM.
In the case of `O=C1CCCc2cc([C@@H](O)CN3C[C@H]4C[C@H](Oc5ccccc5)C[C@@]4(O)C3)ccc2N1` (single isomer, unassigned) [Example 7A], in data set [1], the efflux ratio at 120 min, 10 μM was found to be 2.73. In data set [2], the IC50 came out at 14 nM.
As for `O=C1CCc2cc([C@@H](O)CN3C[C@@H]4C[C@@H](Oc5ccc(F)cc5)C[C@]4(O)C3)ccc2N1` (single isomer, unassigned) [Example 22C], in data set [1], the efflux ratio at 120 min, 10 μM stood at 1.43. Besides, the half-maximal inhibitory concentration (IC50) in data set [2] worked out at 1.4 nM.
On to `O=C1CCc2cc([C@@H](O)CN3C[C@@H]4C[C@@H](Oc5ccccc5)[C@@H](O)[C@]4(O)C3)ccc2N1` [Example 4C, 6-((R)-2-((3aR,4R,5R,6aS)-3a,4-dihydroxy-5-phenoxyhexahydrocyclopenta[c]pyrrol-2(1H)-yl)-1-hydroxyethyl)-3,4-dihydroquinolin-2(1H)-one], for which the efflux ratio at 120 min, 10 μM in data set [1] amounted to 6.75. For the same compound, the 50% inhibitory concentration (IC50) in data set [2] was 3050 nM.
For `O=C1CCc2cc([C@@H](O)CN3C[C@H]4C[C@H](Oc5ccccc5)[C@H](O)[C@@]4(O)C3)ccc2N1` [Example 4A, 6-((R)-2-((3aS,4S,5S,6aR)-3a,4-dihydroxy-5-phenoxyhexahydrocyclopenta[c]pyrrol-2(1H)-yl)-1-hydroxyethyl)-3,4-dihydroquinolin-2(1H)-one], the efflux ratio at 120 min, 10 μM in data set [1] worked out at 6.99. Further, in data set [2], the IC50 amounted to 13 nM.
For `O=C1Cc2cc([C@@H](O)CN3C[C@@H]4C[C@@H](Oc5ccccc5)[C@@H](O)[C@]4(O)C3)ccc2N1` [Example 3A, 5-((R)-2-((3aR,4R,5R,6aS)-3a,4-dihydroxy-5-phenoxyhexahydrocyclopenta[c]pyrrol-2(1H)-yl)-1-hydroxyethyl)indolin-2-one], the efflux ratio at 120 min, 10 μM in data set [1] amounted to 7.49. The IC50 in data set [2] worked out at 5490 nM.
On the same counts, the results for `O=C1Nc2ccc([C@H](O)CN3C[C@H]4C[C@H](Oc5ccccc5F)C[C@@]4(O)C3)cc2CS1` (single isomer, unassigned) [Example 15B] are 1.92 and 0.0019 nM.
Consider `O=C1CCCc2cc([C@@H](O)CN3C[C@H]4C[C@H](Oc5ccccc5F)C[C@@]4(O)C3)ccc2N1` (single isomer, unassigned) [Example 43A], for which, in data set [1], the efflux ratio at 120 min, 10 μM amounted to 2.16. Moreover, in data set [2], the IC50 turned out to be 0.034 nM.
In the case of `O[C@@H](CN1C[C@H]2C[C@H](Oc3ccccc3F)[C@H](O)[C@@]2(O)C1)c1cnc2[nH]ccc2c1` (single isomer, unassigned) [Example 44A], the efflux ratio at 120 min, 10 μM in data set [1] amounted to 6.09. In addition, in data set [2], the IC50 came to 170 nM.
On the same counts, the results for `O=c1[nH]c2ccc([C@@H](O)CN3C[C@H]4C[C@H](Oc5ccccc5F)C[C@@]4(O)C3)cc2s1` (single isomer, unassigned) [Example 18A] are 1.61 and less than 0.0021 nM.
On to `O=C1Nc2ccc([C@@H](O)CN3C[C@H]4C[C@H](Oc5ccccc5)C[C@@]4(O)C3)c(F)c2CO1` (single isomer, unassigned) [Example 34A], for which, in data set [1], the efflux ratio at 120 min, 10 μM amounted to 3.81. The IC50 in data set [2] was found to be 2.7 nM.
Consider `O=C1CCc2cc([C@@H](O)CN3C[C@@H]4C[C@@H](Oc5ccc(F)cc5F)C[C@]4(O)C3)ccc2N1` (single isomer, unassigned) [Example 25C], for which the efflux ratio at 120 min, 10 μM in data set [1] was 2.74. In addition, the IC50 in data set [2] amounted to 0.24 nM.
On to `O=C1Nc2ccc([C@H](O)CN3C[C@H]4C[C@H](Oc5ccccc5)C[C@@]4(O)C3)c(F)c2CO1` (single isomer, unassigned) [Example 34B], for which the efflux ratio at 120 min, 10 μM in data set [1] amounted to 3.47. Further, the IC50 in data set [2] was determined as 1.1 nM.
As for `O=C1Nc2cc(F)c([C@H](O)CN3C[C@H]4C[C@H](Oc5ccccc5)C[C@@]4(O)C3)cc2CO1` (single isomer, unassigned) [Example 36B], the efflux ratio at 120 min, 10 μM in data set [1] amounted to 2.44. Moreover, the IC50 in data set [2] stood at 1.5 nM.
For the compound `O=C1Nc2ccc([C@@H](O)CN3C[C@H]4C[C@H](Oc5ccccc5F)C[C@@]4(O)C3)cc2CCO1` (single isomer, unassigned) [Example 12A], the efflux ratio at 120 min, 10 μM in data set [1] stood at 2.81. The IC50 in data set [2] came to 0.3 nM.
In the case of `O=C1Nc2c(F)cc([C@@H](O)CN3C[C@H]4C[C@H](Oc5ccccc5F)C[C@@]4(O)C3)cc2CO1` (single isomer, unassigned) [Example 35A], the efflux ratio at 120 min, 10 μM in data set [1] is 1. The IC50 in data set [2] came out at 1.2 nM.
As to `O=C1CCc2cc([C@H](O)CN3C[C@@H]4C[C@@H](Oc5c(F)cccc5F)C[C@]4(O)C3)ccc2N1` (single isomer, unassigned) [Example 27D], in data set [1], the efflux ratio at 120 min, 10 μM was found to be 2.05. For the same compound, the IC50 in data set [2] was 1.4 nM.
As to `O=C1COc2cc([C@H](O)CN3C[C@H]4C[C@H](Oc5ccccc5)C[C@@]4(O)C3)cc(F)c2N1` (single isomer, unassigned) [Example 13B], the efflux ratio at 120 min, 10 μM in data set [1] worked out at 1.11. In addition, the IC50 in data set [2] is 57 nM.
